These results are taken from US20170260226A1, “3-NITROGEN OR SULPHUR SUBSTITUTED OESTRA-1,3,5(10),16-TETRAENE AKR1C3 INHIBITORS” (BAYER PHARMA AKTIENGESELLSCHAFT, priority 2014, published 2017).

For experiment [1], the target named is T1, AKR1C3 (Homo sapiens, UniProt P42330).
T1 sequence (P42330 1-323): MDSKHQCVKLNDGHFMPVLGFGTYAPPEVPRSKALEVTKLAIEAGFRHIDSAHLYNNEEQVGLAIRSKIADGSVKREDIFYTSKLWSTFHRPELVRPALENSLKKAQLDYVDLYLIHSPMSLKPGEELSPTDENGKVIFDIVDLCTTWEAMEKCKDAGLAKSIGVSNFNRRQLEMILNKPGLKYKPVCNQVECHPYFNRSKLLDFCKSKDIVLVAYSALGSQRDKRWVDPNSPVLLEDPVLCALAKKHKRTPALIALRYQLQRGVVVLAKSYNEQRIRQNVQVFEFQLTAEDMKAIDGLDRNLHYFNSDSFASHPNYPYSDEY
The experiment can be described thus: AKR1C3 inhibition in a cell-based system (HEK293 cells transfected with AKR1C3 expression plasmid, coumberon substrate). Further details: expressed in transfected cells; host or cells: HEK293 cells (ATCC). Conditions: mean values; HEK293 cells transfected with AKR1C3, coumberon 6×10^−6M, 3 h; read-out: Cellular AKR1C3 inhibition IC50. Here is the method: The inhibition of AKR1C3 by the substances described in this invention was measured in a cell-based assay using coumberon as the substrate for AKR1C3 (Halim, M., Yee, D., J., and Sames, D., J. (2008). Am Chem Soc, 130, 14123-14128 and Yee, D., J., Balsanek, V., Bauman, D., R., Penning, T., M., and Sames, D. (2006), Proc Natl Acad Sci USA 103, 13304-13309) (cf. Example 48).
The cell system used was HEK293 cells (ATCC, USA) (DMEM/F12, 10% FCS, 2 mM L-Glutamine, PSG). The cells were transfected with an AKR1C3 expression plasmid (pCMV6-AC-AKR1C3, GenBank Accession No. NM 003739.4), harvested after 24 hours and subsequently frozen. For assays, the frozen cells were thawed in assay medium (DMEM/F12 w/o phenolred, 0.005% Tween, 10% FCS, 2 mM L-Glutamine, PSG). Cells were seeded at 2500 cells/well into 384-well low volume or 1536-well plates (Greiner Bio-One, Frickenhausen, Germany) that contained 40-50 nl of a 100 fold concentrated compound solution in DMSO. After incubation at room temperature for 15 minutes, coumberon in PBS was added to a final concentration of 6×10^−6M. Following a 3 h incubation at room temperature, the reaction was stopped by lysing the cells with 0.4% Triton X-100. Coumberol fluorescence intensity was measured at 520 nm (excitation 380 nm) with a suitable measuring instrument (Pherastar, BMG). […] The data were normalized (transfected cells+coumberon=0% inhibition; no cells+coumberone=100% inhibition). Substances were usually tested at 11 different concentrations on the same microtiter plate in a range between 96.8 pM to 20 μM (20 μM, 5.9 μM, 1.7 μM, 0.5 μM, 0.15 μM, 44 nM, 12.9 nM, 3.8 nM, 1.1 nM, 0.3 nM and 96.8 pM). The dilutions were carried out on a 100 fold concentrated solution by serial dilution in duplicates. From the obtained data IC50 values were calculated by a 4-parameter fit.

The target in experiment [2] is T1, AKR1C3. The experiment can be described thus: AKR1C3 enzyme inhibition assay (coumberone to coumberol fluorescence). Further details: GST (cleaved yes); made in house; host or cells: E. coli. Type of experiment: biochemical. Conditions: mean values; 10 μM NADPH, 0.3 μM coumberone, 3 h at room temperature. Here is the method:
The AKR1C3-inhibitory action of the substances of this invention was measured in the AKR1C3 assay described in the paragraphs which follow.
Essentially, the enzyme activity is measured by quantifying the coumberol formed from coumberone (Halim, M., Yee, D., J., and Sames, D., J. A., M. (2008). Chem Soc 130, 14123-14128 and Yee, D., J., Balsanek, V., Bauman, D., R., Penning, T., M., and Sames, D. (2006). Proc Natl Acad Sci USA, 103, 13304-13309). In this assay, the increase in the highly fluorescent coumberol can be determined by NADPH (nicotinamide adenine dinucleotide phosphate)-dependent reduction of the nonfluorescent coumberone by AKR1C3.
The enzyme used was recombinant human AKR1C3 (aldo-keto reductase family 1 member C3) (GenBank Accession No. NM_003739). This was expressed as the GST (glutathione S-transferase) fusion protein in E. coli and purified by means of glutathione-Sepharose affinity chromatography. The GST was removed by thrombin digestion with subsequent size exclusion chromatography (Dufort, I., Rheault, P., Huang, X., F., Soucy, P., and Luu-The, V. (1999). Endocrinology,140, 568-574).
For the assay, 40-50 nl of a 100-fold concentrated solution of the test substance in DMSO were pipetted into a black low-volume 384-well microtitre plate (Greiner Bio-One, Frickenhausen, Germany), 2-2.5 μl of a solution of AKR1C3 in assay buffer [50 mM potassium phosphate buffer pH 7, 1 mM DTT, 0.0022% (w/v) Pluronic F-127, 0.01% BSA (w/v) and protease inhibitor cocktail (complete, EDTA-free Protease Inhibitor Cocktail from Roche)] were added and the mixture was incubated for 20 min, in order to enable preliminary binding of the substances to the enzyme prior to the enzyme reaction. Then the enzyme reaction was started by adding 2-2.5 μl of a solution of NADPH and coumberone in assay buffer (final assay concentration was 10 μM NADPH and 0.3 μM coumberone) and the resulting mixture was incubated at room temperature for 3 h. Typical concentrations were depending on the linear range of the enzyme reaction during the reaction time about 1 nM. The reaction was stopped by adding 2 μl of a stop solution consisting of the AKR1C3 inhibitor EM-1404 to a final concentration of 1 μM. Subsequently, the fluorescence of coumberol was measured at 520 nm (excitation at 380 nm) with a suitable measuring instrument (Pherastar, BMG). […] The data were normalized (enzyme+coumberon substrate in assay buffer=0% inhibition; coumberone substrate only in assay buffer=100% inhibition). Substances were usually tested at 11 different concentrations on the same microtiter plate in a range between 96.8 pM to 20 μM (20 μM, 5.9 μM, 1.7 μM, 0.5 μM, 0.15 μM, 44 nM, 12.9 nM, 3.8 nM, 1.1 nM, 0.3 nM and 96.8 pM). The dilutions were carried out on a 100 fold concentrated solution by serial dilution in duplicates. From the obtained data IC50 values were calculated by a 4-parameter fit.

In general, IC50 refers to the concentration that gives 50% inhibition.

In the case of `Cc1cncc(C2=CC[C@H]3[C@@H]4CCc5cc(S(=O)(=O)CCCC(=O)O)ccc5[C@H]4CC[C@]23C)c1` [Example 17, 4-{[17-(5-methylpyridin-3-yl)estra-1,3,5(10),16-tetraen-3-yl]sulfonyl}butanoic acid], the half-maximal inhibitory concentration (IC50) at AKR1C3 [1] came out at 170 nM; at AKR1C3 [2], 1.6 nM.
Turning to `C[C@]12CC[C@@H]3c4ccc(S(=O)(=O)CCCC(=O)O)cc4CC[C@H]3[C@@H]1CC=C2c1cncc(F)c1` [Example 10, 4-{[17-(5-fluoropyridin-3-yl)estra-1(10),2,4,16-tetraen-3-yl]sulfonyl}butanoic acid], the IC50 on AKR1C3 [1] came to 490 nM; against AKR1C3 [2] it was 2.9 nM.
On the same counts, the results for `C[C@]12CC[C@@H]3c4ccc(S(=O)(=O)CCCC(=O)O)cc4CC[C@H]3[C@@H]1CC=C2c1cccnc1` [Example 12, 4-{[17-(pyridin-3-yl)estra-1(10),2,4,16-tetraen-3-yl]sulfonyl}butanoic acid] are 700 nM and 12 nM.
As to `CC(=O)Nc1ccc2c(c1)CC[C@@H]1[C@@H]2CC[C@]2(C)C(c3cncc(F)c3)=CC[C@@H]12` [Example 40, N-[17-(5-fluoropyridin-3-yl)estra-1(10),2,4,16-tetraen-3-yl]acetamide], the IC50 on AKR1C3 [1] turned out to be 100 nM; on AKR1C3 [2], 5.3 nM.
On the same counts, the results for `CN(CCCC(=O)O)c1ccc2c(c1)CC[C@@H]1[C@@H]2CC[C@]2(C)C(c3cncc(F)c3)=CC[C@@H]12` [Example 44, 4-{[17-(5-fluoropyridin-3-yl)estra-1(10),2,4,16-tetraen-3-yl](methyl)amino}butanoic acid] are 1120 nM and 18.5 nM.
Consider `CN(CCC(=O)O)S(=O)(=O)c1ccc2c(c1)CC[C@@H]1[C@@H]2CC[C@]2(C)C(c3cncnc3)=CC[C@@H]12` [Example 05, N-methyl-N-{[17-(pyrimidin-5-yl)estra-1(10),2,4,16-tetraen-3-yl]sulfonyl}-beta-alanine], for which the figures for the IC50 at AKR1C3 [1] and against AKR1C3 [2] were 2710 nM and 91.7 nM, respectively.
The matching figures for `CN(C(=O)CCC(=O)O)c1ccc2c(c1)CC[C@@H]1[C@@H]2CC[C@]2(C)C(c3cncc(F)c3)=CC[C@@H]12` [Example 35, 4-{[17-(5-fluoropyridin-3-yl)estra-1(10),2,4,16-tetraen-3-yl](methyl)amino}-4-oxobutanoic acid]: 210 nM and 3.2 nM.
Turning to `CN(c1ccc2c(c1)CC[C@@H]1[C@@H]2CC[C@]2(C)C(c3cncc(F)c3)=CC[C@@H]12)S(=O)(=O)CCC(=O)O` [Example 38, 3-{[17-(5-fluoropyridin-3-yl)estra-1(10),2,4,16-tetraen-3-yl](methyl)sulfamoyl}propanoic acid], the results for the half-maximal inhibitory concentration (IC50) on AKR1C3 [1] and at AKR1C3 [2] were 860 nM and 4.9 nM, respectively.
As for `C[C@]12CC[C@@H]3c4ccc(NC(=O)CCC(N)=O)cc4CC[C@H]3[C@@H]1CC=C2c1cncc(F)c1` [Example 26, N-[17-(5-fluoropyridin-3-yl)estra-1(10),2,4,16-tetraen-3-yl]butanediamide], the IC50 on AKR1C3 [1] amounted to 150 nM; against AKR1C3 [2], 8.6 nM.
Turning to `Cc1cc(C2=CC[C@H]3[C@@H]4CCc5cc(NC(=O)CCC(=O)O)ccc5[C@H]4CC[C@]23C)cnn1` [Example 45, 4-{[17-(6-methylpyridazin-4-yl)estra-1(10),2,4,16-tetraen-3-yl]amino}-4-oxobutanoic acid], the concentration for half-maximal inhibition (IC50) at AKR1C3 [1] was found to be 980 nM; against AKR1C3 [2], 1.8 nM.
`CC(=O)NS(=O)(=O)CCC(=O)Nc1ccc2c(c1)CC[C@@H]1[C@@H]2CC[C@]2(C)C(c3cncc(F)c3)=CC[C@@H]12` [Example 29, 3-(acetylsulfamoyl)-N-[17-(5-fluoropyridin-3-yl)estra-1(10),2,4,16-tetraen-3-yl]propanamide]: the IC50 came to 5000 nM at AKR1C3 [1] and 3.2 nM against AKR1C3 [2].
The matching figures for `COC(=O)CCCS(=O)(=O)c1ccc2c(c1)CC[C@@H]1[C@@H]2CC[C@]2(C)C(c3cncc(F)c3)=CC[C@@H]12` [Example 09, methyl 4-{[17-(5-fluoropyridin-3-yl)estra-1(10),2,4,16-tetraen-3-yl]sulfonyl}butanoate]: 50 nM and 7.7 nM.
On the same counts, the results for `CN(CCCO)S(=O)(=O)c1ccc2c(c1)CC[C@@H]1[C@@H]2CC[C@]2(C)C(c3cncc(F)c3)=CC[C@@H]12` [Example 03, 17-(5-fluoropyridin-3-yl)-N-(3-hydroxypropyl)-N-methylestra-1(10),2,4,16-tetraene-3-sulfonamide] are 50 nM and 2.4 nM.
As for `Cc1ccncc1C1=CC[C@H]2[C@@H]3CCc4cc(S(=O)(=O)CCCC(=O)O)ccc4[C@H]3CC[C@]12C` [Example 18, 4-{[17-(4-methylpyridin-3-yl)estra-1,3,5(10),16-tetraen-3-yl]sulfonyl}butanoic acid], the IC50 on AKR1C3 [1] worked out at 1790 nM; against AKR1C3 [2], 33.5 nM.
For the compound `Cc1ccc(C2=CC[C@H]3[C@@H]4CCc5cc(S(=O)(=O)CCCC(=O)O)ccc5[C@H]4CC[C@]23C)cn1` [Example 15, 4-{[17-(6-methylpyridin-3-yl)estra-1,3,5(10),16-tetraen-3-yl]sulfonyl}butanoic acid], the IC50 turned out to be 3180 nM at AKR1C3 [1] and 73 nM against AKR1C3 [2].
On the same counts, the results for `C[C@]12CC[C@@H]3c4ccc(NC(=O)NCCC(=O)O)cc4CC[C@H]3[C@@H]1CC=C2c1cncc(F)c1` [Example 42, N-{[17-(5-fluoropyridin-3-yl)estra-1(10),2,4,16-tetraen-3-yl]carbamoyl}-beta-alanine] are 8090 nM and 8.3 nM.
